pIC50: −log10 of the molar value. “Also recorded” adds a separate entry of the source. Counter-ions that a name gives are not always drawn.
Columns and labels:
SYK = target: T1, SYK (Homo sapiens, UniProt P43405); assay: Kinase inhibition assay: SYK; assay type: biochemical
T1 construct: Purified full-length human SYK, ZAP70, PIM1, PYK2; purchased Carna Biosciences
Procedure: (§1) Compounds of the present invention were tested for their capacity to inhibit a kinase panel which includes, but are not limited to, spleen tyrosine kinase (SYK), zeta-chain-associated protein kinase 70 (ZAP70), PTK2B protein tyrosine kinase 2 (PYK2), focal adhesion kinase (FAK), provirus integration of maloney kinase 1 (PIM1), rearranged during transfection kinase (RET), Fms-like tyrosine kinase 3 (FLT3), Janus kinase 2 (JAK2), and leucine-rich repeat kinase 2 (LRRK2).
(§2) Inhibition of SYK, ZAP70, PYK2, FAK, PIM1, RET, FLT3, JAK2 and LRRK2 Kinase Activity
(§3) Compounds of the invention were initially diluted to 10 mM in 100% DMSO (CALBIOCHEM™) for storage and made into kinase buffer solution to create a compound concentration ranging from 1 uM and 10 uM. Serial dilutions of compounds of the invention were dispensed into a 96-well plate (GREINER BIOSCIENCES™) at 6 μL each. Purified full-length human SYK, ZAP70, PIM1, PYK2 and truncated human FAK, RET, FLT3, JAK2, and LRRK2 (CARNA BIOSCIENCES™) were diluted in kinase buffer and added to the compound solutions and pre-incubated for 30 minutes at room temperature (1 hour for PYK2). […] The reaction mixture was incubated for 1 hour (2 hours for PYK2). Following the incubation, the stop solution made with EDTA, water, and Lance detection buffer ([…]™) was added (12μL each) to stop phosphorylation. […] The IC50 value of test compound was calculated at Gradpad Prism 5 unless specified otherwise.

[1] = test system: TNF-α release in THP-1 cells; assay: SYK dependent TNF-α release assay (IgG stimulation); assay type: cell-based, human; conditions: for inhibition at 0.3 µM / inhibition at 1 µM: Homo sapiens; for percentage inhibition of TNF-α release compared with R406: IgG stimulated release
Procedure: (§4) Compounds of the present invention are tested for their effects on TNF-α release in human acute monocytic leukimia cell line (THP-1) to illustrate potential efficacy at the cellular level. TNF-α is a cytokine involved in systemic inflammation and is a member of a group of cytokines that stimulate the acute phase reaction. The primary role of TNF-α is in the regulation of immune cells. TNF-α is known to induce apoptotic cell death and inflammation and to inhibit early tumorigenesis and viral replication. Dysregulation and, in particular, overproduction of TNF-α have been implicated in a variety of human diseases, autoimmune disease, inflammation, arthritis and cancer.
(§5) Production or release of TNF-α is controlled by type of stimulus to which the cell responds. SYK activity is involved in mediating TNF-α production. When stimulated by IgG, cells increase TNF-α production in a SYK dependent manner (i.e., the SYK dependent pathway). However, when stimulated by lipopolysaccharide (LPS), they produce TNF-α in a SYK independent manner.
Compounds of the invention were tested for their TNF-α release effect on THP-1 cells. For SYK dependent TNF-α release assay (i.e., via IgG stimulation), THP-1 cells derived from human monocytic cells were obtained from the American Type Culture Collection (ATCC, Manassas, Va.). This cell line was maintained with an Roswell Park Memorial Institute (RPMI) medium (GIBCO™) containing 10 fetal bovine serum (FBS; GIBCO™) and 0.05 mM 2-mercaptoethanol. The THP-1 cells were seeded at 1×10^5 cells/100 μL/well into human IgG (10 μg/well, INVITROGENT™)-coated 96 well culture plate, and serially diluted compound was then added. After an 18-hour incubation period at 37° C., supernatants were collected for the determination of the TNF-α level by enzyme-linked immunosorbent assay (ELISA), and the remaining cells were subjected to an MTT (yellow tetrazolium salt) assay to determine the cytotoxic effects of compound.

[2] = test system: TNF-α release in THP-1 cells; assay: SYK independent TNF-α release assay (LPS stimulation); assay type: cell-based; conditions: Homo sapiens, 18-hour incubation
Procedure: as §4, §5
For SYK independent TNF-α release assay (i.e., via lipopolysaccharide (LPS)-stimulation), THP-1 cells derived from human monocytic cells were obtained from the American Type Culture Collection (ATCC, Manassas, Va.). This cell line was maintained with an RPMI medium (GIBCO™) containing 10 fetal bovine serum (FBS, GIBCO™) and 0.05 mM 2-mercaptoethanol. The THP-1 cells were seeded at 1×10^5 cells/100 μL/well into 96-well culture plates, and treated with lipopolysaccharide (1 μg/ml), and serially diluted compound was then added. After an 18-hour incubation period at 37° C., supernatants were collected for the determination of the TNF-α level by ELISA, and the remaining cells were subjected to an MTT assay to determine the cytotoxic effects.

MV4-11 cells = assay: Cell viability assay: FLT3-ITD-positive cells; assay type: cell-based, human; conditions: for IC50: Homo sapiens, MV4-11, 72-hour incubation, read-out: Viability of FLT3-ITD Induced Cancer Cell Line MV-4-11 (IC50 nM)
Procedure: Compounds of the invention were tested for their effects on inhibition of FLT3-ITD in human acute leukemia cell line (MV4-11). FLT3 is primarily expressed in immature hematopoietic progenitor as well as in mature myeloid cells. It belongs to type III receptor tyrosine kinase (RTK) family including KIT, FMS, and PDGFR. It is activated by binding to FL, which leads to increased kinase activity and activation of downstream signaling pathway including STATS, Ras, and PI3Kinase.
Compounds of the invention were tested for cell viability effect on MV4-11 cells. For cell viability assay, MV4-11 cells expressing human FLT3-ITD were obtained from the American Type Culture Collection (ATCC, Manassas, Va.). This cell line was maintained with an Roswell Park Memorial Institute (RPMI) medium (HyClone™) containing 10 bovine calf serum (BCS; Hyclone™) supplemented iron. The MV4-11 cells were seeded at 2×10^4 cells in 96-well culture plates, and serially diluted compound was then added. After a 72-hour incubation period at 37° C., cell viability was measured using the ATPLite 1 step assay (Perkin-Elmer™) that is based on the quantification of ATP from viable cells. CellTiter Aqueous assay (Promega™) was also performed in parallel as an orthogonal assay. IC50 values were calculated using nonlinear regression and defined as the concentration needed for a 50 reduction in luminescence or absorbance treated versus untreated control cells (Prism™ Software).

RET = target: T2, RET (Homo sapiens, UniProt P07949); assay: Kinase inhibition assay: RET; assay type: biochemical
T2 construct: truncated human FAK, RET, FLT3, JAK2, and LRRK2; purchased Carna Biosciences
T2 sequence (P07949 658-1114 limits assumed): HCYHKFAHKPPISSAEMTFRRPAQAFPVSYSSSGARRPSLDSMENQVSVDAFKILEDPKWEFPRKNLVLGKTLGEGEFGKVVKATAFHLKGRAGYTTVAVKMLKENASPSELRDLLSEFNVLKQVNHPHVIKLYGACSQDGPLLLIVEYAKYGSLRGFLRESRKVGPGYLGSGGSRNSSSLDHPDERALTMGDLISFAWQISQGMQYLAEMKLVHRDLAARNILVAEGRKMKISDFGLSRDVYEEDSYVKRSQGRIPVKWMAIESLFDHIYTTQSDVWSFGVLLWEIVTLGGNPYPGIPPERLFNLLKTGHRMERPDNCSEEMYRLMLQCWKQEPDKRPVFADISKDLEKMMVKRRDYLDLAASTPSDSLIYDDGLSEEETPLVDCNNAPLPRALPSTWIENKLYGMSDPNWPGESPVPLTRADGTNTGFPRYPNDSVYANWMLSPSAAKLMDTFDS
Procedure: as §1, §2, §3

JAK2 = JAK2 (Homo sapiens, UniProt O60674); assay: Kinase inhibition assay: JAK2; assay type: biochemical; set-up: truncated human FAK, RET, FLT3, JAK2, and LRRK2; purchased Carna Biosciences
Procedure: as §1, §2, §3

FLT3 = target: T3, FLT3 (Homo sapiens, UniProt P36888); assay: Kinase inhibition assay: FLT3; assay type: biochemical
T3 construct: truncated human FAK, RET, FLT3, JAK2, and LRRK2; purchased Carna Biosciences
T3 sequence (P36888 564-993 limits assumed): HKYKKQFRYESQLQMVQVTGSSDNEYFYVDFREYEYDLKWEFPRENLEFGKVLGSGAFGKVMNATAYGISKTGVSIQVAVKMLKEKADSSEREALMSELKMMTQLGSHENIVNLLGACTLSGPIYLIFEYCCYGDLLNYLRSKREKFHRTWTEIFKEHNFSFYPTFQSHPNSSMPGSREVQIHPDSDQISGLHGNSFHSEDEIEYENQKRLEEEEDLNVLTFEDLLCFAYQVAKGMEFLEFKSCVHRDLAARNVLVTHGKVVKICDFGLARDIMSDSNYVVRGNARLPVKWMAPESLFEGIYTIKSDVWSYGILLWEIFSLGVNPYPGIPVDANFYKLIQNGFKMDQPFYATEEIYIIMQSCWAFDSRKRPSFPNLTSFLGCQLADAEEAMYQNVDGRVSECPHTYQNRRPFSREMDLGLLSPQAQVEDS
Procedure: as §1, §2, §3

[3] = THP-1 cells, IgG stimulation, 0.3 μM, 18-hour incubation
[4] = THP-1 cells, IgG stimulation, 1 μM, 18-hour incubation

Sequence of JAK2 (O60674 826-1132 limits assumed): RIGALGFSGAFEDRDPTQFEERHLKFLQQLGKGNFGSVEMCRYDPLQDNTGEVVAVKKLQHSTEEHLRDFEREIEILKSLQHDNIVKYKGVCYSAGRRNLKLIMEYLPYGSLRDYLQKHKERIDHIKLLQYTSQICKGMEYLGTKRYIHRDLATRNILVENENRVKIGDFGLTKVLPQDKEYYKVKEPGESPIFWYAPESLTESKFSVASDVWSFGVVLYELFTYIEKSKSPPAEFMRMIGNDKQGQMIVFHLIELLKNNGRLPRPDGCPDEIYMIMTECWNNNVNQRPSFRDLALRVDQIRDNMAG

SMILES | inhibition at 0.3 µM [1, 3] [%] | inhibition at 1 µM [1, 4] [%] | inhibition at 0.3 µM [2] [%] | inhibition at 1 µM [2] [%] | further results
Cc1cc(Nc2nccc(-n3cc(CN4CC[C@@H](O)C4)c(C)n3)n2)cc(C)c1OCCN1CCCC1 [Compound 46, (R)-1-((1-(2-(3,5-dimethyl-4-(2-(pyrrolidin-1-yl)ethoxy)phenyl-amino)pyrimidin-4-yl)-3-methyl-1H-pyrazol-4-yl)methyl)pyrrolidin-3-ol] | – | – | – | – | pIC50 (SYK): 8.23
Cc1cn(-c2ccnc(Nc3ccc4c(ccn4C)c3)n2)cc1CN1CC(O)C1 [Compound 52, 1-((4-methyl-1-(2-(1-methyl-1H-indol-5-ylamino)pyrimidin-4-yl)-1H-pyrrol-3-yl)methyl)azetidin-3-ol] | – | – | – | – | pIC50 (SYK): 8.46
Cc1cc(C)cc(Nc2ncc(F)c(-n3cc(CN(C)C)c(C)n3)n2)c1 [Compound 77, 4-(4-((dimethylamino)methyl)-3-methyl-1H-pyrazol-1-yl)-N-(3,5-dimethylphenyl)-5-fluoropyrimidin-2-amine] | 35.3 | 69.5 | 42.2 | 36 | –
Cc1cc(C)cc(Nc2ncc(F)c(-n3cc(C)c(CN(C)C)c3)n2)c1 [Compound 80, 4-(3-((dimethylamino)methyl)-4-methyl-1H-pyrrol-1-yl)-N-(3,5-dimethylphenyl)-5-fluoropyrimidin-2-amine] | 51.5 | 91.1 | 8.2 | 12.5 | –
COc1cc(Nc2ncc(C)c(-n3cc(C)c(CN4CC(OC(=O)C(C)(C)C)C4)c3)n2)cc(OC)c1OC [Compound 93, 1-((4-methyl-1-(5-methyl-2-(3,4,5-trimethoxyphenylamino)pyrimidin-4-yl)-1H-pyrrol-3-yl)methyl)azetidin-3-yl pivalate] | – | – | – | – | inhibition level compared with Vandetinib and Sunitinib (MV4-11 cells; FLT3 ITD induced cancer cell line (MV4-11)): greater than those exhibited by Vandetinib and Sunitinib; IC50 (MV4-11 cells): 0.6 nM; pIC50 (RET): 7.12; pIC50 (JAK2): 6.66; pIC50 (FLT3): 7.93
COc1cc(Nc2ncc(C)c(-n3cc(C)c(CN4CCCNCC4)c3)n2)cc(OC)c1OC [Compound 96, 4-(3-((1,4-diazepan-1-yl)methyl)-4-methyl-1H-pyrrol-1-yl)-5-methyl-N-(3,4,5-trimethoxyphenyl)pyrimidin-2-amine trihydrochloride] | – | – | – | – | IC50 (MV4-11 cells): 12.5 nM; pIC50 (RET): 8.00; pIC50 (JAK2): 8.41; pIC50 (FLT3): 9.28
Cc1cc(C)cc(Nc2ncc(F)c(-n3ccc(CN(C)C)c3)n2)c1 [Compound 132, 4-(3-((dimethylamino)methyl)-1H-pyrrol-1-yl)-N-(3,5-dimethylphenyl)-5-fluoropyrimidin-2-amine] | 85.9 | 94.5 | 3.1 | 8.2 | percentage inhibition of TNF-α release compared with R406 ([1]; 0.3 μM): greater that those exhibited by R406
Cc1cc(C)cc(Nc2ncc(F)c(-n3ccc(CN4CC[C@@H](O)C4)c3)n2)c1 [Compound 133, (R)-1-((1-(2-(3,5-dimethylphenyl-amino)-5-fluoropyrimidin-4-yl)-1H-pyrrol-3-yl)methyl)pyrrolidin-3-ol] | 86.3 | 99.4 | 13.8 | 14.2 | percentage inhibition of TNF-α release compared with R406 ([1]; 0.3 μM): greater that those exhibited by R406; also recorded: greater percentage inhibition
COc1cc(Nc2ncc(F)c(Nc3ccc4c(n3)NC(=O)C(C)(C)O4)n2)cc(OC)c1OC [Compound R406, R406, reference compound] | – | – | – | – | TNF-α Release Inhibition, IgG stimulation, At 0.3 μM [1, 3]: 49.9%; TNF-α Release Inhibition, IgG stimulation, At 1 μM [1, 4]: 87.4%
C[C@@H]1C[C@H]2[C@@H]3CCC4=CC(=O)C=C[C@]4(C)[C@@]3(F)[C@@H](O)C[C@]2(C)[C@@]1(O)C(=O)CO [Dexamethasone, reference compound] | – | – | – | 68.4 | –
CCN(CC)CCNC(=O)c1c(C)[nH]c(/C=C2\C(=O)Nc3ccc(F)cc32)c1C [Sunitinib, reference compound] | – | – | – | – | IC50 (MV4-11 cells): 3.8 nM

From patent US8629132B2, “Kinase inhibitors” (Genosco, priority 2009, dated 2014)
